Test results published in patent US5633345A, “Cyclic peptides” (priority 1992, dated 1997).
Starred links: 1 amine or outer side, 2 acyl side, 3 side chain; linkers in the order of their positions; H or OH if unused. Non-standard residues stand in square brackets, D forms with d. Residues, ends and D or L forms follow the SMILES beside them. *: point of attachment. X7 = CC(=O)OC(c1ccccc1)[C@@H](C(=O)[*:2])N(C)[*:1]; NMePhe(2-F) = CN[C@@H](Cc1ccccc1F)C(=O)O; X1 = CC[C@@H](C)[C@@H](O[*:1])C(=O)[*:2]; NMeVal(β-OH) = CN[C@H](C(=O)O)C(C)(C)O; X4 = CC(O)[C@@H](C)C(O[*:1])C(=O)[*:2]; X6 = CC(CO)[C@@H](C(=O)[*:2])N(C)[*:1]; NMeaIle = CC[C@@H](C)[C@H](NC)C(=O)O; Phe(2-F) = N[C@@H](Cc1ccccc1F)C(=O)O; X5 = CN([C@@H](CCCO)C(=O)[*:2])[*:1]; NMeY = CN[C@@H](Cc1ccc(O)cc1)C(=O)O; NMeF = CN[C@@H](Cc1ccccc1)C(=O)O; aIle = CC[C@@H](C)[C@H](N)C(=O)O; Nva(5-OH) = N[C@@H](CCCO)C(=O)O; NMeL = CN[C@@H](CC(C)C)C(=O)O; NMeV = CN[C@H](C(=O)O)C(C)C; Thz = O=C(O)[C@@H]1CSCN1; Nva = CCC[C@H](N)C(=O)O; OBn = c1ccc(CO*)cc1; Sar = CNCC(=O)O

Details: mouse, in vivo, ip, 100 mg/kg

Row | Structure (SMILES) | toxicity signs
1 | CC[C@@H](C)[C@@H]1NC(=O)[C@@H]2CCCN2C(=O)[C@H](Cc2ccccc2)N(C)C(=O)[C@H](Cc2ccccc2)NC(=O)[C@H](C(C)C)N(C)C(=O)[C@@H]([C@H](C)CC)OC(=O)[C@H](C(C)(C)O)N(C)C(=O)[C@H](CCCO)NC(=O)[C@H](C(C)C)N(C)C1=O [Compound 39, cyclo(L-aIle-L-MeVal-L-HONva-L-βHOMeVal-D-Hmp-L-MeVal-L-Phe-L-MePhe-L-Pro)] (cyclo(F[NMeF]P[aIle][NMeV][Nva(5-OH)][NMeVal(β-OH)][X1][NMeV])) | no toxicity signs
2 | CC[C@@H](C)[C@@H]1NC(=O)[C@@H]2CCCN2C(=O)[C@H](Cc2ccccc2)N(C)C(=O)[C@H](Cc2ccccc2)NC(=O)[C@H](C(C)C)N(C)C(=O)[C@@H]([C@H](C)CC)OC(=O)[C@H](C(C)(C)O)N(C)C(=O)[C@H](CC(C)C)NC(=O)[C@H]([C@H](C)CC)N(C)C1=O [Compound 22, cyclo (L-aIle-L-MeaIle-L-Leu-L-βHOMeVal-D-Hmp-L-MeVal-L-Phe-L-MePhe-L-Pro)] (cyclo(F[NMeF]P[aIle][NMeaIle]L[NMeVal(β-OH)][X1][NMeV])) | no toxicity signs
3 | CC[C@@H](C)[C@@H]1NC(=O)[C@@H]2CCCN2C(=O)[C@H](Cc2ccccc2F)N(C)C(=O)[C@H](Cc2ccccc2F)NC(=O)[C@H](C(C)C)N(C)C(=O)[C@@H]([C@H](C)CC)OC(=O)[C@H](C(C)(C)O)N(C)C(=O)[C@H](CC(C)C)NC(=O)[C@H](C(C)C)N(C)C1=O [Compound 7] (cyclo(L[NMeVal(β-OH)][X1][NMeV][Phe(2-F)][NMePhe(2-F)]P[aIle][NMeV])) | no toxicity signs
4 | CC[C@@H](C)[C@@H]1NC(=O)[C@@H]2CCCN2C(=O)[C@H](Cc2ccccc2)N(C)C(=O)[C@H](Cc2ccccc2)NC(=O)[C@H](C(C)C)N(C)C(=O)[C@@H]([C@H](C)CC)OC(=O)[C@H](C(C)CO)N(C)C(=O)[C@H](CC(C)C)NC(=O)[C@H](C(C)C)N(C)C1=O (stereo partly shown) [Compound 4] (cyclo(F[NMeF]P[aIle][NMeV]L[X6][X1][NMeV])) | no toxicity signs
5 | CC[C@@H](C)[C@@H]1NC(=O)[C@@H]2CCCN2C(=O)[C@H](C(OC(C)=O)c2ccccc2)N(C)C(=O)[C@H](Cc2ccccc2)NC(=O)[C@H](C(C)C)N(C)C(=O)[C@@H]([C@H](C)CC)OC(=O)[C@H](C(C)(C)O)N(C)C(=O)[C@H](CC(C)C)NC(=O)[C@H](C(C)C)N(C)C1=O (stereo partly drawn) [Compound 15] (cyclo(F[X7]P[aIle][NMeV]L[NMeVal(β-OH)][X1][NMeV])) | no toxicity signs
6 | CC[C@@H](C)[C@H]1OC(=O)[C@H](C(C)(C)O)N(C)C(=O)[C@H](CC(C)C)NC(=O)[C@H](C(C)C)N(C)C(=O)[C@H](CC(C)C)NC(=O)[C@@H]2CCCN2C(=O)[C@H](Cc2ccccc2)N(C)C(=O)[C@H](Cc2ccccc2)NC(=O)[C@H](C(C)C)N(C)C1=O [Compound 6] (HELM PEPTIDE1{F.[meF].P.L.[meV].L.[CN([C@H](C(=O)[*:2])C(C)(C)O)[*:1]].[CC[C@@H](C)[C@@H](O[*:1])C(=O)[*:2]].[meV]}$PEPTIDE1,PEPTIDE1,1:R1-9:R2$$$V2.0) | no toxicity signs
7 | CC[C@@H](C)[C@@H]1NC(=O)[C@@H]2CCCN2C(=O)[C@H](Cc2ccccc2)N(C)C(=O)[C@H](Cc2ccccc2)NC(=O)[C@H](C(C)C)N(C)C(=O)[C@@H]([C@H](C)CC)OC(=O)[C@H](C(C)(C)O)N(C)C(=O)[C@H](CC(C)C)NC(=O)[C@H](CC(C)C)N(C)C1=O [Compound 23, cyclo(L-aIle-L-MeLeu-L-Leu-L-βHOMeVal-D-Hmp-L-MeVal-L-Phe-L-MePhe-L-Pro)] (cyclo(F[NMeF]P[aIle][NMeL]L[NMeVal(β-OH)][X1][NMeV])) | no toxicity signs
8 | CC[C@@H](C)[C@@H]1NC(=O)[C@@H]2CCCN2C(=O)[C@H](Cc2ccccc2)N(C)C(=O)[C@H](Cc2ccccc2)NC(=O)[C@H](C(C)C)N(C)C(=O)[C@@H]([C@H](C)CC)OC(=O)[C@H](C(C)(C)O)N(C)C(=O)[C@H]([C@H](C)CC)NC(=O)[C@H](C(C)C)N(C)C1=O [Compound 24, cyclo(L-aIle-L-MeVal-L-aIle-L-βHOMeVal-D-Hmp-L-MeVal-L-Phe-L-MePhe-L- Pro)] (cyclo(F[NMeF]P[aIle][NMeV][aIle][NMeVal(β-OH)][X1][NMeV])) | no toxicity signs
9 | CC[C@@H](C)[C@@H]1NC(=O)[C@@H]2CSCN2C(=O)[C@H](Cc2ccccc2)N(C)C(=O)[C@H](Cc2ccccc2)NC(=O)[C@H](C(C)C)N(C)C(=O)[C@@H]([C@H](C)CC)OC(=O)[C@H](C(C)(C)O)N(C)C(=O)[C@H](CC(C)C)NC(=O)[C@H](C(C)C)N(C)C1=O [Compound 10] (cyclo(F[NMeF][Thz][aIle][NMeV]L[NMeVal(β-OH)][X1][NMeV])) | no toxicity signs
10 | CC[C@@H](C)[C@@H]1NC(=O)[C@@H]2CCCN2C(=O)[C@H](Cc2ccccc2)N(C)C(=O)[C@H](Cc2ccccc2)NC(=O)[C@H](C(C)C)N(C)C(=O)[C@@H]([C@H](C)CC)OC(=O)[C@H](C(C)(C)O)N(C)C(=O)[C@H](CC(C)C)NC(=O)[C@H](CCCO)N(C)C1=O [Compound 28, cyclo(L-aIle-L-HOMeNva-L-Leu-L-βHOMeVal-D-Hmp-L-MeVal-L-Phe-L-MePhe-L-Pro)] (cyclo(F[NMeF]P[aIle][X5]L[NMeVal(β-OH)][X1][NMeV])) | no toxicity signs
11 | CC[C@@H](C)[C@H]1OC(=O)[C@H](C(C)(C)O)N(C)C(=O)[C@H](CC(C)C)NC(=O)[C@H](C(C)C)N(C)C(=O)[C@H](C(C)C)NC(=O)[C@@H]2CCCN2C(=O)[C@H](Cc2ccccc2)N(C)C(=O)[C@H](Cc2ccccc2)NC(=O)[C@H](C(C)C)N(C)C1=O [Compound 3] (HELM PEPTIDE1{F.[meF].P.V.[meV].L.[CN([C@H](C(=O)[*:2])C(C)(C)O)[*:1]].[CC[C@@H](C)[C@@H](O[*:1])C(=O)[*:2]].[meV]}$PEPTIDE1,PEPTIDE1,1:R1-9:R2$$$V2.0) | no toxicity signs
12 | CC[C@@H](C)[C@H]1OC(=O)[C@H](C(C)(C)O)N(C)C(=O)[C@H](CC(C)C)NC(=O)[C@H](C(C)C)N(C)C(=O)[C@H](CCC(=O)OCc2ccccc2)NC(=O)[C@@H]2CCCN2C(=O)[C@H](Cc2ccccc2)N(C)C(=O)[C@H](Cc2ccccc2)NC(=O)[C@H](C(C)C)N(C)C1=O [Compound 26, cyclo(L-GluOR-L-MeVal-L-Leu-L-βHOMeVal-D-Hmp-L-MeVal-L-Phe-L-MePhe-L- Pro) (R: Bzl)] (cyclo(E(OBn)[NMeV]L[NMeVal(β-OH)][X1][NMeV]F[NMeF]P)) | no toxicity signs
13 | CCC[C@@H]1NC(=O)[C@H](C(C)C)N(C)C(=O)[C@H]([C@H](C)CC)NC(=O)[C@@H]2CCCN2C(=O)[C@H](Cc2ccccc2)N(C)C(=O)[C@H](Cc2ccccc2)NC(=O)[C@H](C(C)C)N(C)C(=O)[C@@H]([C@H](C)CC)OC(=O)[C@H](C(C)(C)O)N(C)C1=O [Compound 12] (cyclo(F[NMeF]P[aIle][NMeV][Nva][NMeVal(β-OH)][X1][NMeV])) | no toxicity signs
14 | CCCC[C@@H]1NC(=O)[C@@H]2CCCN2C(=O)[C@H](Cc2ccccc2)N(C)C(=O)[C@H](Cc2ccccc2)NC(=O)[C@H](C(C)C)N(C)C(=O)[C@@H]([C@H](C)CC)OC(=O)[C@H](C(C)(C)O)N(C)C(=O)[C@H](CC(C)C)NC(=O)[C@H](C(C)C)N(C)C1=O [Compound 11] (HELM PEPTIDE1{F.[meF].P.[Nle].[meV].L.[CN([C@H](C(=O)[*:2])C(C)(C)O)[*:1]].[CC[C@@H](C)[C@@H](O[*:1])C(=O)[*:2]].[meV]}$PEPTIDE1,PEPTIDE1,1:R1-9:R2$$$V2.0) | no toxicity signs
15 | CC[C@@H](C)[C@@H]1NC(=O)[C@@H]2CCCN2C(=O)[C@H](Cc2ccc(O)cc2)N(C)C(=O)[C@H](Cc2ccccc2)NC(=O)[C@H](C(C)C)N(C)C(=O)[C@@H]([C@H](C)CC)OC(=O)[C@H](C(C)(C)O)N(C)C(=O)[C@H](CC(C)C)NC(=O)[C@H](C(C)C)N(C)C1=O [Compound 8] (cyclo(F[NMeY]P[aIle][NMeV]L[NMeVal(β-OH)][X1][NMeV])) | no toxicity signs
16 | CC[C@@H](C)[C@@H]1NC(=O)[C@@H]2CCCN2C(=O)[C@H](Cc2ccccc2)N(C)C(=O)[C@H](Cc2ccccc2)NC(=O)[C@H](C(C)C)N(C)C(=O)C([C@H](C)C(C)O)OC(=O)[C@H](C(C)(C)O)N(C)C(=O)[C@H](CC(C)C)NC(=O)[C@H](C(C)C)N(C)C1=O (stereo partly drawn) [Compound 17] (cyclo(F[NMeF]P[aIle][NMeV]L[NMeVal(β-OH)][X4][NMeV])) | no toxicity signs
17 | CC[C@@H](C)[C@@H]1NC(=O)[C@@H]2CCCN2C(=O)CN(C)C(=O)[C@H](Cc2ccccc2)NC(=O)[C@H](C(C)C)N(C)C(=O)[C@@H]([C@H](C)CC)OC(=O)[C@H](C(C)(C)O)N(C)C(=O)[C@H](CC(C)C)NC(=O)[C@H](C(C)C)N(C)C1=O [Compound 13] (cyclo(F[Sar]P[aIle][NMeV]L[NMeVal(β-OH)][X1][NMeV])) | no toxicity signs
18 | CC[C@@H](C)[C@@H]1NC(=O)[C@@H]2CCCN2C(=O)[C@H](Cc2ccccc2)N(C)C(=O)[C@H](Cc2ccccc2)NC(=O)[C@H](C(C)C)N(C)C(=O)[C@@H]([C@H](C)CC)OC(=O)[C@H]([C@@H](C)O)N(C)C(=O)[C@H](CC(C)C)NC(=O)[C@H](C(C)C)N(C)C1=O [Compound 19, Cyclo(L-aIle-L-MeVal-L-Leu-L-MeThr-D-Hmp-L-MeVal-L-Phe-L-MePhe-L-Pro)] (HELM PEPTIDE1{F.[meF].P.[CC[C@@H](C)[C@H](N[*:1])C(=O)[*:2]].[meV].L.[meT].[CC[C@@H](C)[C@@H](O[*:1])C(=O)[*:2]].[meV]}$PEPTIDE1,PEPTIDE1,1:R1-9:R2$$$V2.0) | no toxicity signs
19 | CC(C)C[C@@H]1NC(=O)[C@H](C(C)C)N(C)C(=O)[C@H](C(C)C)NC(=O)[C@@H]2CCCN2C(=O)[C@H](Cc2ccccc2)N(C)C(=O)[C@H](Cc2ccccc2)NC(=O)[C@H](C(C)C)N(C)C(=O)[C@@H](C(C)C)OC(=O)[C@H](C(C)(C)O)N(C)C1=O [Compound 25] (HELM PEPTIDE1{F.[meF].P.V.[meV].L.[CN([C@H](C(=O)[*:2])C(C)(C)O)[*:1]].[CC(C)[C@@H](O[*:1])C(=O)[*:2]].[meV]}$PEPTIDE1,PEPTIDE1,1:R1-9:R2$$$V2.0) | no toxicity signs
